Data as given in patent US11208387B2, “Macrocyclic broad spectrum antibiotics” (Genentech, Inc., priority 2019, dated 2021).
Converted amounts (≈) assume the structure as drawn. Where two headings read alike, the source gives them in different places.

Legend:
Assay in all cases: Serum MIC, broth micro-dilution
Format in all cases: cell-based
[1] = test system: Klebsiella pneumoniae ATCC 700603; settings: Klebsiella pneumoniae
Protocol: (§1) In vitro antimicrobial activity of each compound was determined by measuring minimal inhibitor concentrations (MICs) using the broth micro-dilution technique as approved by the Clinical and Laboratory Standards Institute (CLSI) (Methods for Dilution Antimicrobial Susceptibility Tests for Bacteria that Grow Aerobically; Approved Standard—Eighth Edition. CLSI document M07-A8. Wayne, Pa.: Clinical and Laboratory Standards; 2009). Antibacterial activity was measure against Escherichia coli strain ATCC 25922 (E. coli), Klebsiella pneumoniae ATCC 700603 (K. pneumoniae), Acinetobacter baumannii ATCC 17978 (A. baumannii), and Pseudomonas aeruginosa PA01 (P. aeruginosa), each of which is representative of a clinically relevant Gram-negative species. Cells were inoculated onto plates of Mueller Hinton Agar and grown at 37° C. for 16-18 hours. Inocula suspensions were prepared by scraping cells into 1 mL of testing media (Mueller Hinton II cation adjusted Broth) and diluting to a final OD 600 nm of 0.01.
(§2) Test compounds were prepared in DMSO at a concentration of […]. The compounds were tested under several different dilution formats. In protocol 1, the compound stocks were diluted into testing media at a concentration of 64 μg/ml and serial 2-fold dilutions were made in the same media, in 96-well U bottom microtiter dishes, for a total of 10 compound concentrations. In protocol 2, the compound stocks were diluted into testing media at a concentration of 4 μg/mL and serial 2-fold dilutions were made in the same media, in 96-well U bottom microtiter dishes, for a total of 10 compound concentrations. In protocol 3, compound stocks were diluted into testing media at a concentration of 0.5 μg/mL, with serial 2-fold dilutions conducted as described above. In protocol 4, compound stocks were diluted into testing media at a concentration of 0.13 μg/mL, with serial 2-fold dilutions conducted as described above. Inocula suspensions were added to the 2-fold serial dilutions of test compounds to a final density of OD 600 nm of 0.0005 and incubated at 35° C. for 22 hours. […] To assess antimicrobial activity in the presence of plasma proteins, MICs were also determined in growth media supplemented with 50% serum. Bacterial inocula and test compound dilution plates were prepared using the same protocol as described above for the standard MICs assay, with the exception that a mixture of 50% v/v Mueller Hinton II cation adjusted Broth and 50% v/v mouse sterile filtered serum (Equitech-Bio) was used in place of 100% Mueller Hinton II cation adjusted Broth. The results are listed in Table 3 (MIC, IC50 values micromolar).

[2] = test system: Pseudomonas aeruginosa PA01; settings: Pseudomonas aeruginosa
Protocol: as §1, §2

[3] = test system: Escherichia coli strain ATCC 25922; settings: Escherichia coli
Protocol: as §1, §2

[4] = test system: Acinetobacter baumannii ATCC 17978; settings: Acinetobacter baumannii
Protocol: as §1, §2

[5] = ATCC700603, 50% v/v mouse serum in Mueller Hinton II cation adjusted Broth, 35° C., 22 hours, Table 4, read-out: K pneumoniae 700603 Serum MIC
[6] = PA01, 50% v/v mouse serum in Mueller Hinton II cation adjusted Broth, 35° C., 22 hours, Table 4, read-out: P. aeruginosa 01 Serum MIC
[7] = ATCC25922, 50% v/v mouse serum in Mueller Hinton II cation adjusted Broth, 35° C., 22 hours, Table 4, read-out: E. coli 25922 Serum MIC
[8] = ATCC17978, 50% v/v mouse serum in Mueller Hinton II cation adjusted Broth, 35° C., 22 hours, Table 4, read-out: A. baumanii 17978 Serum MIC
[9] = ATCC17978, 50% v/v mouse serum in Mueller Hinton II cation adjusted Broth, 35° C., 22 hours, Table 5, read-out: Acinetobacter baumanii 17978 Serum MIC
[10] = ATCC700603, 50% v/v mouse serum, compounds of Table 1, Table 7, read-out: K. pneumoniae 700603 Serum MIC
[11] = PA01, 50% v/v mouse serum, compounds of Table 1, Table 7, read-out: P. aeruginosa 01 Serum MIC
[12] = ATCC25922, 50% v/v mouse serum, compounds of Table 1, Table 7, read-out: E. coli 25922 Serum MIC
[13] = ATCC17978, 50% v/v mouse serum, compounds of Table 1, Table 7, read-out: A. baumanii 17978 Serum MIC

SMILES | MIC [1, 5] [µM] | MIC [2, 6] [µM] | MIC [3, 7] [µM] | MIC [4, 8] [µM] | MIC [4, 9] [µM] | MIC ([1]; ATCC700603, read-out: K. pneumoniae 700603 Serum MIC) [µM] | MIC ([2]; PA01, read-out: P. aeruginosa 01 Serum MIC) [µM] | MIC ([3]; ATCC25922, read-out: E. coli 25922 Serum MIC) [µM] | MIC ([4]; ATCC17978, read-out: A. baumanii 17978 Serum MIC) [µM] | MIC [1, 10] [µM] | MIC [2, 11] [µM] | MIC [3, 12] [µM] | MIC [4, 13] [µM]
Cc1cc(-c2ccc(C(C)(C)C)cc2F)nc(N)c1C(=O)N[C@@H](CNS(N)(=O)=O)C(=O)N(C)[C@@H]1C(=O)N[C@@H](C)C(=O)N[C@H](C(=O)O)Cc2ccc(OC[C@H](O)CN)c(c2)-c2cc1cc(OC[C@H](O)CN)c2O [Example 35, (8S,11S,14S)-14-[[(2S)-2-[[2-amino-6-(4-tert-butyl-2-fluoro-phenyl)-4-methyl-pyridine-3-carbonyl]amino]-3-(sulfamoylamino)-propanoyl]-methyl-amino]-3,17-bis[(2R)-3-amino-2-hydroxy-propoxy]-18-hydroxy-11-methyl-10,13-dioxo-9,12-diazatricyclo-[13.3.1.12,6]icosa-1(18),2(20),3,5,15(19), 16-hexaene-8-carboxylic acid] | 0.5 (≈ 0.513 µg/mL) | 8 (≈ 8.2 µg/mL) | 0.5 (≈ 0.513 µg/mL) | 16 (≈ 16.4 µg/mL) | 16 (≈ 16.4 µg/mL) | – | – | – | – | – | – | – | –
Cc1nc(-c2ccc(C(C)(C)C)cc2CO)nc(N)c1C(=O)N[C@@H](CNS(N)(=O)=O)C(=O)N(C)[C@@H]1C(=O)N[C@@H](C)C(=O)N[C@H](C(=O)O)Cc2ccc(OC[C@H](O)CN)c(c2)-c2cc1cc(OC[C@H](O)CN)c2O [Example 58, (8S,11S,14S)-14-[[(2S)-2-[[4-amino-2-[4-tert-butyl-2-(hydroxymethyl)-phenyl]-6-methyl-pyrimidine-5-carbonyl]amino]-3-(sulfamoylamino)-propanoyl]-methyl-amino]-3,17-bis[(2R)-3-amino-2-hydroxy-propoxy]-18-hydroxy-11-methyl-10,13-dioxo-9,12-diazatricyclo-[13.3.1.12,6]icosa-1(18),2(20),3,5,15(19), 16-hexaene-8-carboxylic acid] | 4 (≈ 4.15 µg/mL) | 16 (≈ 16.6 µg/mL) | 4 (≈ 4.15 µg/mL) | 48 (≈ 49.8 µg/mL) | 48 (≈ 49.8 µg/mL) | – | – | – | – | – | – | – | –
Cc1nc(-c2c(O)cc3c(c2O)CCC3(C)C)nc(N)c1C(=O)N[C@@H](CNS(N)(=O)=O)C(=O)N(C)[C@@H]1C(=O)N[C@@H](C)C(=O)N[C@H](C(=O)O)Cc2ccc(OC[C@H](O)CN)c(c2)-c2cc1cc(OC[C@H](O)CN)c2O [Example 52, (8S,11S,14S)-18-hydroxy-11-methyl-14-[methyl-[(2S)-2-[[4-amino-2-(4,6-dihydroxy-1,1-dimethyl-indan-5-yl)-6-methyl-pyrimidine-5-carbonyl]amino]-3-(sulfamoylamino)-propanoyl]amino]-10,13-dioxo-3,17-bis[(2R)-3-amino-2-hydroxy-propoxy]-9,12-diazatricyclo-[13.3.1.12,6]icosa-1(18),2(20),3,5,15(19), 16-hexaene-8-carboxylic acid] | 1 (≈ 1.05 µg/mL) | 8 (≈ 8.42 µg/mL) | 0.5 (≈ 0.526 µg/mL) | 16 (≈ 16.8 µg/mL) | 16 (≈ 16.8 µg/mL) | – | – | – | – | – | – | – | –
Cc1nc(-c2ccc(C(C)(C)C)cc2)nc(C)c1C(=O)N[C@@H](CCN)C(=O)N(C)[C@@H]1C(=O)N[C@@H](C)C(=O)N[C@H](C(=O)O)Cc2cc(OCCN)c(O)c(c2)-c2cc1ccc2OCCN (racemic) [Example 563] | – | – | – | – | – | 0.75 (≈ 0.662 µg/mL) | 64 (≈ 56.5 µg/mL) | 0.75 (≈ 0.662 µg/mL) | 64 (≈ 56.5 µg/mL) | – | – | – | –
Cc1nc(-c2ccc(C(C)(C)C)cc2)nc(C)c1C(=O)N[C@@H](CCN)C(=O)N(C)[C@@H]1C(=O)N[C@@H](C)C(=O)N[C@H](C(=O)O)Cc2ccc(OCCN)c(c2)-c2cc1ccc2OCCN (racemic) [Example 645] | – | – | – | – | – | – | – | – | – | 0.55 (≈ 0.476 µg/mL) | 67 (≈ 58 µg/mL) | 0.53 (≈ 0.459 µg/mL) | 67 (≈ 58 µg/mL)
Cc1nc(-c2ccc(C(F)(F)C(C)C)cc2)ncc1C(=O)N[C@@H](CNS(N)(=O)=O)C(=O)N(C)[C@@H]1C(=O)N[C@@H](C)C(=O)N[C@H](C(=O)O)Cc2ccc(OC[C@H](O)CN)c(c2)-c2cc1cc(OC[C@H](O)CN)c2O [Example 10, (8S,11S,14S)-18-hydroxy-11-methyl-14-[methyl-[(2S)-2-[[2-[4-(1,1-difluoro-2-methyl-propyl)-phenyl]-4-methyl-pyrimidine-5-carbonyl]amino]-3-(sulfamoylamino)-propanoyl]amino]-10,13-dioxo-3,17-bis[(2R)-3-amino-2-hydroxy-propoxy]-9,12-diazatricyclo-[13.3.1.12,6]icosa-1(18),2(20),3,5,13(19), 16-hexaene-8-carboxylic acid] | 1 (≈ 1.03 µg/mL) | 32 (≈ 32.9 µg/mL) | 0.5 (≈ 0.515 µg/mL) | 32 (≈ 32.9 µg/mL) | 32 (≈ 32.9 µg/mL) | – | – | – | – | – | – | – | –
Cc1nc(-c2ccc(C(C)(C)C)cc2)ncc1C(=O)N[C@@H](CCN)C(=O)N(C)[C@@H]1C(=O)N[C@@H](C)C(=O)N[C@H](C(=O)O)Cc2ccc(OCCN)c(c2)-c2cc1ccc2OCCN (racemic) [Example 640] | – | – | – | – | – | – | – | – | – | 0.75 (≈ 0.639 µg/mL) | 64 (≈ 54.5 µg/mL) | 0.5 (≈ 0.426 µg/mL) | 64 (≈ 54.5 µg/mL)
C[C@@H]1NC(=O)[C@@H](N(C)C(=O)[C@H](CCN)NC(=O)c2cnn(-c3ccc(C4(C)CC4)cc3)c(=O)c2)c2cc(OC[C@H](O)CN)c(O)c(c2)-c2cc(ccc2OC[C@H](O)CN)C[C@@H](C(=O)O)NC1=O [Example 29, (8S,11S,14S)-18-hydroxy-11-methyl-14-[methyl-[(2S)-4-amino-2-[[1-[4-(1-methylcyclopropyl)-phenyl]-6-oxo-pyridazine-4-carbonyl]amino]-butanoyl]amino]-10,13-dioxo-3,17-bis[(2R)-3-amino-2-hydroxy-propoxy]-9,12-diazatricyclo-[13.3.1.12,6]icosa-1(18),2(20),3,5,15(19), 16-hexaene-8-carboxylic acid] | 1.8 (≈ 1.67 µg/mL) | 64 (≈ 59.4 µg/mL) | 2.7 (≈ 2.51 µg/mL) | 32 (≈ 29.7 µg/mL) | 32 (≈ 29.7 µg/mL) | – | – | – | – | – | – | – | –
C[C@@H]1NC(=O)[C@@H](N(C)C(=O)[C@H](CNS(N)(=O)=O)NC(=O)c2c(N)cc(-c3ccc(C(C)(C)C)cc3O)nc2Cl)c2cc(OC[C@H](O)CN)c(O)c(c2)-c2cc(ccc2OC[C@H](O)CN)C[C@@H](C(=O)O)NC1=O [Example 61, (8S,11S,14S)-18-hydroxy-11-methyl-14-[methyl-[(2S)-2-[[4-amino-6-(4-tert-butyl-2-hydroxy-phenyl)-2-chloro-pyridine-3-carbonyl]-amino]-3-(sulfamoyl-amino)propanoyl]-amino]-10,13-dioxo-3,17-bis[(2R)-3-amino-2-hydroxy-propoxy]-9,12-diazatricyclo-[13.3.1.12,6]icosa-1(18),2(20),3,5,15(19), 16-hexaene-8-carboxylic acid] | 0.5 (≈ 0.522 µg/mL) | 3 (≈ 3.13 µg/mL) | 0.38 (≈ 0.397 µg/mL) | 16 (≈ 16.7 µg/mL) | 16 (≈ 16.7 µg/mL) | – | – | – | – | – | – | – | –
C[C@@H]1NC(=O)[C@@H](N(C)C(=O)[C@H](CNS(N)(=O)=O)NC(=O)c2cnc(-c3ccc(C(C)(C)C)cc3)nc2)c2cc(OC[C@H](O)CN)c(O)c(c2)-c2cc(ccc2OC[C@H](O)CN)C[C@@H](C(=O)O)NC1=O [Example 71, (8S,11S,14S)-3,17-bis[(2R)-3-amino-2-hydroxy-propoxy]-14-[[(2S)-2-[[2-(4-tert-butylphenyl)-pyrimidine-5-carbonyl]amino]-3-(sulfamoylamino)-propanoyl]-methyl-amino]-18-hydroxy-11-methyl-10,13-dioxo-9,12-diazatri-cyclo[13.3.1.12,6]icosa-1(18),2(20),3,5,15(19), 16-hexaene-8-carboxylic acid] | 0.5 (≈ 0.49 µg/mL) | 8 (≈ 7.83 µg/mL) | 0.25 (≈ 0.245 µg/mL) | 8 (≈ 7.83 µg/mL) | 8 (≈ 7.83 µg/mL) | – | – | – | – | – | – | – | –
